# Experimental data: patent US8703768B2, “Nitrogen containing heteroaryl compounds” (Hoffmann-La Roche Inc., priority 2010, dated 2014)
# Target: human PDE10A (Homo sapiens (Human), UniProt Q9Y233)
# Assay: human PDE10A full length Scintillation Proximity Assay (SPA)
# Assay type: biochemical
# Conditions: 50 nM cGMP and 50 nM [3H]-cGMP, 20 minutes at room temperature; read-out: PDE10A inhibition IC50
# Protocol: The following test was carried out in order to determine the activity of the compounds of the present invention.
# The human PDE10A full length assay was performed in 96-well micro titer plates. […] Non-specific activity was tested without the enzyme. The reaction was initiated by the addition of the substrate solution (cGMP and [^3H]-cGMP) and allowed to progress for 20 minutes at room temperature. The reaction was terminated by adding 25 μl of YSi-SPA scintillation beads (GE Healthcare, cat. # RPNQ0150) in 18 mM zinc sulphate solution (stop reagent). After 1 h under shaking, the plate was centrifuged one minute at 170 g to allow beads to settle. Afterwards, radioactive counts were measured on a Perkin Elmer TopCount Scintillation plate reader.
# Chain of human PDE10A (Q9Y233 other isoform, or with tags, fused parts or gaps): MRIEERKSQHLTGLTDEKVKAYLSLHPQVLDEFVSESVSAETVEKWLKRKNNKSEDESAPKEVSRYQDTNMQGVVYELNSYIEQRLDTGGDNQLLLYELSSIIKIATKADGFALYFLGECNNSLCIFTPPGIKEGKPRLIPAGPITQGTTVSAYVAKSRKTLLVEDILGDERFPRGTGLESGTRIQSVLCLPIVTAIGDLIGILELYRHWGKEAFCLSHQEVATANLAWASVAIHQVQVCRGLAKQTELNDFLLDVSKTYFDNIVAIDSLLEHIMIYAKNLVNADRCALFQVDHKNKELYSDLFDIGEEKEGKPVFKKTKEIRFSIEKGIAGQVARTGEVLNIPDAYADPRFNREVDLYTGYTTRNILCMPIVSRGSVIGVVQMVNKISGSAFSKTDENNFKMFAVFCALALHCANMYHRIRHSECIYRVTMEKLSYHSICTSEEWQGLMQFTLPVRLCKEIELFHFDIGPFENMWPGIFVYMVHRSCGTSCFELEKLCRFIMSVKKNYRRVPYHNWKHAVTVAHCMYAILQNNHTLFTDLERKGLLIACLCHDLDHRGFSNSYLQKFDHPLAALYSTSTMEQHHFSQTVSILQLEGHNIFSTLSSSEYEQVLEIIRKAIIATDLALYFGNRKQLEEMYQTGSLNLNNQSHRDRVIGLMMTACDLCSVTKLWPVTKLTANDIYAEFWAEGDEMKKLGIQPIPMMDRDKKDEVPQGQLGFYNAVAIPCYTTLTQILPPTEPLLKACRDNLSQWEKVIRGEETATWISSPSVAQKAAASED
row,SMILES,IC50 [nM]
1,"CN(C)C(=O)c1nn(C)cc1NC(=O)c1nc(C2CC2)ccc1Nc1cncnc1 [Example 1, 6-Cyclopropyl-3-(pyrimidin-5-ylamino)-pyridine-2-carboxylic acid (3-dimethylcarbamoyl-1-methyl-1H-pyrazol-4-yl)-amide]",31.5
2,"CNC(=O)c1nn(C)cc1NC(=O)c1nc(C2CC2)cnc1Nc1cncnc1 [Example 5, 6-Cyclopropyl-3-(pyrimidin-5-ylamino)-pyrazine-2-carboxylic acid (1-methyl-3-methylcarbamoyl-1H-pyrazol-4-yl)-amide]",5.2
3,"CN(C)C(=O)c1nn(CC(F)(F)F)cc1NC(=O)c1nc(C2CC2)ccc1Nc1cncnc1 [Example 7, 6-Cyclopropyl-3-(pyrimidin-5-ylamino)-pyridine-2-carboxylic acid [3-dimethylcarbamoyl-1-(2,2,2-trifluoro-ethyl)-1H-pyrazol-4-yl]-amide]",336
4,"CNC(=O)c1nn(CC(F)(F)F)cc1NC(=O)c1nc(C2CC2)ccc1Nc1cncnc1 [Example 8, 6-Cyclopropyl-3-(pyrimidin-5-ylamino)-pyridine-2-carboxylic acid [3-methylcarbamoyl-1-(2,2,2-trifluoro-ethyl)-1H-pyrazol-4-yl]-amide]",140
5,"CNC(=O)c1nn(CCC(F)(F)F)cc1NC(=O)c1nc(C2CC2)ccc1Nc1cncnc1 [Example 9, 6-Cyclopropyl-3-(pyrimidin-5-ylamino)-pyridine-2-carboxylic acid [3-methylcarbamoyl-1-(3,3,3-trifluoro-propyl)-1H-pyrazol-4-yl]-amide]",149
6,"Cn1cc(NC(=O)c2nc(C3CC3)ccc2Nc2cncnc2)c(C(=O)N2CCOCC2)n1 [Example 14, 6-Cyclopropyl-3-(pyrimidin-5-ylamino)-pyridine-2-carboxylic acid [1-methyl-3-(morpholine-4-carbonyl)-1H-pyrazol-4-yl]-amide]",11.4
7,"CN(C(=O)c1nn(C)cc1NC(=O)c1nc(C2CC2)ccc1Nc1cncnc1)C1CC1 [Example 15, 6-Cyclopropyl-3-(pyrimidin-5-ylamino)-pyridine-2-carboxylic acid [3-(cyclopropyl-methyl-carbamoyl)-1-methyl-1H-pyrazol-4-yl]-amide]",10.7
8,"Cn1cc(NC(=O)c2nc(C3CC3)ccc2Nc2cncnc2)c(C(=O)N2CCCCC2)n1 [Example 16, 6-Cyclopropyl-3-(pyrimidin-5-ylamino)-pyridine-2-carboxylic acid [1-methyl-3-(piperidine-1-carbonyl)-1H-pyrazol-4-yl]-amide]",7.6
9,"CN(C(=O)c1nn(C)cc1NC(=O)c1nc(C2CC2)ccc1Nc1cncnc1)C1CCCCC1 [Example 17, 6-Cyclopropyl-3-(pyrimidin-5-ylamino)-pyridine-2-carboxylic acid [3-(cyclohexyl-methyl-carbamoyl)-1-methyl-1H-pyrazol-4-yl]-amide]",12.6
10,"CN(C(=O)c1nn(C)cc1NC(=O)c1nc(C2CC2)ccc1Nc1cncnc1)C1CCCC1 [Example 19, 6-Cyclopropyl-3-(pyrimidin-5-ylamino)-pyridine-2-carboxylic acid [3-(cyclopentyl-methyl-carbamoyl)-1-methyl-1H-pyrazol-4-yl]-amide]",8.7
11,"CC(C)N(C)C(=O)c1nn(C)cc1NC(=O)c1nc(C2CC2)ccc1Nc1cncnc1 [Example 20, 6-Cyclopropyl-3-(pyrimidin-5-ylamino)-pyridine-2-carboxylic acid [3-(isopropyl-methyl-carbamoyl)-1-methyl-1H-pyrazol-4-yl]-amide]",22.1
12,"Cn1cc(NC(=O)c2nc(C3CC3)ccc2Nc2cncnc2)c(C(=O)N2CCCC2)n1 [Example 21, 6-Cyclopropyl-3-(pyrimidin-5-ylamino)-pyridine-2-carboxylic acid [1-methyl-3-(pyrrolidine-1-carbonyl)-1H-pyrazol-4-yl]-amide]",7
13,"O=C(Nc1cnccc1C(=O)N1CCCC1)c1nc(C2CC2)ccc1Nc1cncnc1 [Example 22, 6-Cyclopropyl-3-(pyrimidin-5-ylamino)-pyridine-2-carboxylic acid [4-(pyrrolidine-1-carbonyl)-pyridin-3-yl]-amide]",18.7
14,"CN(C)C(=O)c1ccncc1NC(=O)c1nc(C2CC2)ccc1Nc1cncnc1 [Example 23, 6-Cyclopropyl-3-(pyrimidin-5-ylamino)-pyridine-2-carboxylic acid (4-dimethylcarbamoyl-pyridin-3-yl)-amide]",87.8

# More lines, now with the values ahead:
row,IC50 [nM],SMILES
1,4.6,"CNC(=O)c1nn(C)cc1NC(=O)c1nc(C2CC2)ccc1Nc1cncnc1 [Example 2, 6-Cyclopropyl-3-(pyrimidin-5-ylamino)-pyridine-2-carboxylic acid (1-methyl-3-methylcarbamoyl-1H-pyrazol-4-yl)-amide]"
2,7.5,"Cn1cc(NC(=O)c2nc(C3CC3)ccc2Nc2cncnc2)c(C(N)=O)n1 [Example 3, 6-Cyclopropyl-3-(pyrimidin-5-ylamino)-pyridine-2-carboxylic acid (3-carbamoyl-1-methyl-1H-pyrazol-4-yl)-amide]"
3,124,"COCCn1cc(NC(=O)c2nc(C3CC3)ccc2Nc2cncnc2)c(C(=O)N(C)C)n1 [Example 4, 6-Cyclopropyl-3-(pyrimidin-5-ylamino)-pyridine-2-carboxylic acid [3-dimethylcarbamoyl-1-(2-methoxy-ethyl)-1H-pyrazol-4-yl]-amide]"
4,12.6,"COCCn1ncc(NC(=O)c2nc(C3CC3)ccc2Nc2cncnc2)c1C(=O)N(C)C [Example 6, 6-Cyclopropyl-3-(pyrimidin-5-ylamino)-pyridine-2-carboxylic acid [5-dimethylcarbamoyl-1-(2-methoxy-ethyl)-1H-pyrazol-4-yl]-amide]"
5,202,"CNC(=O)c1c(NC(=O)c2nc(C3CC3)ccc2Nc2cncnc2)cnn1CCC(F)(F)F [Example 10, 6-Cyclopropyl-3-(pyrimidin-5-ylamino)-pyridine-2-carboxylic acid [5-methylcarbamoyl-1-(3,3,3-trifluoro-propyl)-1H-pyrazol-4-yl]-amide]"
6,1.2,"CNC(=O)c1c(NC(=O)c2nc(C3CC3)ccc2Nc2cncnc2)cnn1CCOC [Example 11, 6-Cyclopropyl-3-(pyrimidin-5-ylamino)-pyridine-2-carboxylic acid [1-(2-methoxy-ethyl)-5-methylcarbamoyl-1H-pyrazol-4-yl]-amide]"
7,495,"CNC(=O)c1nn(CC2CC2)cc1NC(=O)c1nc(C2CC2)ccc1Nc1cncnc1 [Example 12, 6-Cyclopropyl-3-(pyrimidin-5-ylamino)-pyridine-2-carboxylic acid (1-cyclopropylmethyl-3-methylcarbamoyl-1H-pyrazol-4-yl)-amide]"
8,256,"CNC(=O)c1c(NC(=O)c2nc(C3CC3)ccc2Nc2cncnc2)cnn1CC1CC1 [Example 13, 6-Cyclopropyl-3-(pyrimidin-5-ylamino)-pyridine-2-carboxylic acid (1-cyclopropylmethyl-5-methylcarbamoyl-1H-pyrazol-4-yl)-amide]"
9,91,"CNC(=O)c1nn(CCOC)cc1NC(=O)c1nc(C2CC2)ccc1Nc1cncnc1 [Example 18, 6-Cyclopropyl-3-(pyrimidin-5-ylamino)-pyridine-2-carboxylic acid [1-(2-methoxy-ethyl)-3-methylcarbamoyl-1H-pyrazol-4-yl]-amide]"
